Results on 14 molecules are retold here after PubChem BioAssay (NCI).

Among the test systems are HCT-116 colon; HCT-15 colon; LOX IMVI melanoma; MALME-3M melanoma; NCI/ADR-RES ovarian; TK-10 renal; UACC-257 melanoma; UACC-62 melanoma; UO-31 renal; HL-60(TB) leukemia; MCF7 breast; SR leukemia.
Holding throughout (assay): NCI tumour cell line growth inhibition, 48 h

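Grown in 96-well plates, cells were treated for 48 hours with each compound at five concentrations. Insufficient inhibition: endpoint recorded as highest concentration tested. The concentration for 50% growth inhibition is given as GI50. TGI: total growth inhibition.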 Some results are limits rather than exact numbers.

For the molecule `CNC(=O)c1[nH]cnc1/N=N/N(C)N`, the TGI in the test on HCT-116 colon, with HCT-15 colon, in the test with LOX IMVI melanoma, in the test with MALME-3M melanoma, in the test on NCI/ADR-RES ovarian and in the test with TK-10 renal was above 100 µM each time. The TGI in the test on UACC-257 melanoma, in the test on UACC-62 melanoma and in the test on UO-31 renal was above 100 µM throughout.
With `COC(=O)c1c(C)cccc1/C=C1\Cc2cc(C)cc(C)c2C1=O`, the TGI with HCT-116 colon, with HCT-15 colon, in the test on HL-60(TB) leukemia, with LOX IMVI melanoma, with MALME-3M melanoma and in the test on MCF7 breast was above 100 µM each time. For the same molecule, the TGI in the test with SR leukemia was above 100 µM; with TK-10 renal it was 73 µM; in the test with UACC-257 melanoma it was above 100 µM; in the test with UACC-62 melanoma, 48.6 µM; in the test with UO-31 renal it was above 100 µM.
With `CCC(=O)O[C@H]1CC[C@H]2[C@@H]3CCC4=C/C(=N/NC(=O)c5cccc6c(=O)c7ccccc7[nH]c56)CC[C@]4(C)[C@H]3CC[C@]12C`, the TGI with HCT-15 colon, with LOX IMVI melanoma, in the test on MCF7 breast, with NCI/ADR-RES ovarian, in the test on SR leukemia and in the test on TK-10 renal was above 25 µM throughout. Further, the TGI in the test on UACC-257 melanoma, in the test with UACC-62 melanoma and with UO-31 renal was above 25 µM each time.
As to `NC(=O)N1N=C2c3ccccc3SC[C@H]2[C@@H]1c1ccccc1`, the TGI in the test with HCT-116 colon was 28.2 µM; in the test with HCT-15 colon, above 100 µM; in the test on HL-60(TB) leukemia it was 55 µM; in the test on LOX IMVI melanoma, 32.4 µM; with MALME-3M melanoma, above 100 µM; with SR leukemia it was above 100 µM. The TGI with TK-10 renal is 92.6 µM; in the test with UACC-257 melanoma, 54 µM; in the test with UO-31 renal it was 82.9 µM.
Regarding `C[C@H](O)C1CC(Cn2nnc3c(N)ncnc32)C1(C)C` (some centres not stated), the TGI in the test on HCT-116 colon, with HCT-15 colon, in the test on LOX IMVI melanoma, in the test on MCF7 breast, in the test with NCI/ADR-RES ovarian and in the test on TK-10 renal was above 100 µM in each case. Moreover, the TGI with UACC-257 melanoma, in the test with UACC-62 melanoma and in the test with UO-31 renal was above 100 µM each time.
Turning to `Nc1nc(Cl)cc(Nc2cc(Cl)cc(Cl)c2)n1`, the TGI was determined as 33.3 µM in the test on HCT-116 colon; 42.6 µM in the test with HCT-15 colon; 32.3 µM in the test on LOX IMVI melanoma; 37.8 µM in the test on MALME-3M melanoma; 41.6 µM in the test on MCF7 breast; 44 µM in the test on NCI/ADR-RES ovarian. Moreover, the TGI with TK-10 renal is 45 µM; in the test with UACC-257 melanoma, 32.8 µM; with UACC-62 melanoma it was 33.5 µM; in the test on UO-31 renal it was 36.5 µM.
For `COc1cc2c(c(OC)c1OC)-c1ccc(SC)cc1[C@H](OC(=O)c1ccccc1)CC2`, the TGI with HCT-116 colon is 1.45 µM; in the test with HCT-15 colon, above 40.6 µM; with HL-60(TB) leukemia, 0.487 µM; in the test with LOX IMVI melanoma, above 100 µM; in the test on MCF7 breast it was above 33.2 µM; in the test with SR leukemia it was above 100 µM. Besides, the TGI in the test with TK-10 renal, in the test with UACC-257 melanoma, in the test with UACC-62 melanoma and with UO-31 renal was above 100 µM each time.
`CC(C)C1CC(O)O[C@@H]([C@@H](C)[C@H]2CC(=O)[C@@H]3[C@@H]4[C@@H](O)[C@H](O)[C@H]5[C@@H](O)[C@H](O)CC[C@]5(C)[C@H]4CC[C@]23C)C1` (some centres not stated): the TGI with HCT-116 colon, in the test with HCT-15 colon, in the test on HL-60(TB) leukemia, in the test with LOX IMVI melanoma, in the test on MALME-3M melanoma and in the test on SR leukemia was above 100 µM each time. For the same molecule, the TGI in the test on TK-10 renal, in the test with UACC-257 melanoma, in the test with UACC-62 melanoma and in the test with UO-31 renal was above 100 µM each time.
`CCN(CC)C(=S)SS(=O)(=O)c1ccc([N+](=O)[O-])cc1`: the GI50 in the test on HCT-15 colon is 52.7 µM; with NCI/ADR-RES ovarian it was 48.3 µM; in the test with TK-10 renal, 43.1 µM; with UACC-257 melanoma, 24 µM. Moreover, the TGI is above 100 µM in the test on HCT-15 colon; 33.8 µM in the test on LOX IMVI melanoma; 37.9 µM in the test on MALME-3M melanoma; above 100 µM in the test on NCI/ADR-RES ovarian; 54.5 µM with SR leukemia; above 100 µM in the test on TK-10 renal. The TGI with UACC-257 melanoma is 53.5 µM; with UACC-62 melanoma, above 100 µM; in the test on UO-31 renal, 47 µM.
Take `CCOC(=O)C(NC(=O)Nc1ccc(Cl)c(Cl)c1)C(F)(F)F` (configuration not stated): the TGI in the test on HCT-116 colon, with HCT-15 colon, in the test on HL-60(TB) leukemia, in the test with LOX IMVI melanoma, in the test with NCI/ADR-RES ovarian and in the test with SR leukemia was above 100 µM each time. The TGI in the test on TK-10 renal, with UACC-257 melanoma and in the test on UO-31 renal was above 100 µM throughout.
`COC(=O)c1c(C)cccc1CC1Cc2c(C)cccc2C1=O` (configuration not stated): the TGI was above 100 µM in the test with HCT-116 colon; above 100 µM with HCT-15 colon; 45.5 µM in the test with HL-60(TB) leukemia; 33.6 µM in the test on LOX IMVI melanoma; above 100 µM in the test with MALME-3M melanoma; 64.2 µM in the test with NCI/ADR-RES ovarian. In addition, the TGI with TK-10 renal is above 100 µM; with UACC-257 melanoma, 72.9 µM; in the test on UACC-62 melanoma it was 89.9 µM; in the test with UO-31 renal, 71 µM.
Consider `CCC(CC)n1c(C)nc2c1C(=O)c1ccccc1C2=O`, for which the TGI was 77.4 µM in the test with HCT-116 colon; above 100 µM in the test with HCT-15 colon; above 100 µM in the test with HL-60(TB) leukemia; 54.7 µM with LOX IMVI melanoma; 73.6 µM in the test on MALME-3M melanoma; above 100 µM with SR leukemia. Besides, the TGI is above 100 µM in the test with TK-10 renal, 72.7 µM in the test with UACC-257 melanoma, 36.2 µM in the test with UACC-62 melanoma and above 100 µM in the test on UO-31 renal.
Take `c1cc2c(c(-c3c4ccccc4nc4ccccc34)c1)CC1(CC2)OCCO1`: the TGI in the test with HCT-116 colon, with HCT-15 colon, with LOX IMVI melanoma, in the test on MALME-3M melanoma, in the test on MCF7 breast and in the test on NCI/ADR-RES ovarian was above 100 µM throughout. For the same molecule, the TGI in the test on TK-10 renal, with UACC-257 melanoma and in the test with UO-31 renal was above 100 µM each time.
Regarding `CC(C)=CCC/C(C)=C/CC/C(C)=C/CC/C(C)=C/CC/C(C)=C\CC/C(C)=C/CC/C(C)=C/CC/C(C)=C/Cc1cc(O)ccc1O`, the TGI is 1.87 µM in the test with HCT-116 colon; above 33.4 µM in the test with HCT-15 colon; 2.89 µM with MCF7 breast; 1.92 µM in the test with NCI/ADR-RES ovarian; 1.8 µM with SR leukemia; above 29.4 µM in the test with TK-10 renal. Also, the TGI came to 2.91 µM with UACC-257 melanoma, 0.857 µM in the test with UACC-62 melanoma and 5.71 µM with UO-31 renal.
